Assay results taken from patent US12653191B2, “Active compound combinations” (Bayer Aktiengesellschaft, priority 2020, dated 2026).

Experiments:
[1] = Log P by HPLC on reversed phase columns (LC-UV), method [a]: acidic range, 0.1% formic acid in water / acetonitrile; type: physicochemical; conditions: method [a]: HPLC on reversed phase column, acidic range, 0.1% formic acid in water / acetonitrile
Protocol: Measurement of Log P Values
Measurement of Log P values as provided herein was performed according to EEC directive 79/831 Annex V.A8 by HPLC (High Performance Liquid Chromatography) on reversed phase columns with the following methods: • ^[a]
If more than one Log P value is available within the same method, all the values are given and separated by “+”.

Diaporthe citri = assay: in vitro-Test with fungal microorganisms, Method A (tables F1-F11); type: cell-based; conditions: applied alone
How it was run: (§1)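 Test compound in methanol plus alkylaryl-polyglycol-ether emulsifier was dried into wells, then liquid potato dextrose medium containing spores or mycelium of the fungus was added. Plates were incubated at 20° C and 85% relative humidity; growth read at 620 nm after 3-5 days, efficacy relative to untreated control.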

Fusarium culmorum = assay: in vitro-Test with fungal microorganisms, Method A (tables G1-G4); type: cell-based; conditions: alone
How it was run: as §1

Cercospora beticola = assay: in vitro-Test with fungal microorganisms, Method A (tables C1-C10); type: cell-based; conditions: Cercospora beticola, read-out: Efficacy %
How it was run: as §1

[2] = tested on: Ustilago segetum var. avenae; assay: in vitro-Test with fungal microorganisms, Method A (tables I1-I5); type: cell-based; conditions: alone, read-out: Efficacy %
How it was run: as §1

Alternaria alternate = assay: in vitro-Test with fungal microorganisms, Method A (tables A1-A12); type: cell-based, Alternaria alternata; conditions: applied alone
How it was run: as §1

For `Cc1ccc(CC2CON=C(c3cc(C)nnc3Oc3cccc(Cl)c3F)N2)c(Cl)c1` (racemic) [Compound I-302, rac-3-[3-(3-chloro-2-fluorophenoxy)-6-methylpyridazin-4-yl]-5-[(2-chloro-4-methylphenyl)methyl]-5,6-dihydro-4H-1,2,4-oxadiazine], the chromatographic logP [1] was 3.94, the inhibition of growth at 0.0008 ppm (Diaporthe citri; Diaporthe citri, 0.0008 ppm, read-out: Efficacy) was 0% and the inhibition of growth at 0.004 ppm (Diaporthe citri; Diaporthe citri, 0.004 ppm, read-out: Efficacy) was 1%. It also gave an inhibition of growth at 0.02 ppm (Diaporthe citri; Diaporthe citri, 0.02 ppm, read-out: Efficacy) of 0%, an inhibition of growth at 0.1 ppm (Diaporthe citri; Diaporthe citri, 0.1 ppm, read-out: Efficacy) of 20% and an Efficacy (Diaporthe citri; 0.004 ppm) of 1%. It also gave an Efficacy (Fusarium culmorum; 0.004 ppm) of 4%, an inhibition of growth at 0.0008 ppm (Fusarium culmorum; Fusarium culmorum, 0.0008 ppm, read-out: Efficacy) of 7% and an inhibition of growth at 0.004 ppm (Fusarium culmorum; Fusarium culmorum, 0.004 ppm, read-out: Efficacy) of 4%. For the same molecule, the inhibition of growth at 0.02 ppm (Fusarium culmorum; Fusarium culmorum, 0.02 ppm, read-out: Efficacy) was 2%, the inhibition of growth at 0.1 ppm (Fusarium culmorum; Fusarium culmorum, 0.1 ppm, read-out: Efficacy) was 0% and the inhibition of growth at 0.0008 ppm (Cercospora beticola; 0.0008 ppm) was 0%. It also gave an inhibition of growth at 0.004 ppm (Cercospora beticola; 0.004 ppm) of 0%, an inhibition of growth at 0.02 ppm (Cercospora beticola; 0.02 ppm) of 31% and an inhibition of growth at 0.1 ppm (Cercospora beticola; 0.1 ppm) of 35%. It also gave an inhibition of growth at 0.0008 ppm ([2]; 0.0008 ppm) of 0%, an inhibition of growth at 0.004 ppm ([2]; 0.004 ppm) of 0% and an inhibition of growth at 0.02 ppm ([2]; 0.02 ppm) of 0%. The inhibition of growth at 0.1 ppm ([2]; 0.1 ppm) was 0%, the inhibition of growth at 0.0008 ppm (Alternaria alternate; Alternaria, 0.0008 ppm, read-out: Efficacy %) was 9% and the inhibition of growth at 0.004 ppm (Alternaria alternate; Alternaria, 0.004 ppm, read-out: Efficacy %) was 6%. The inhibition of growth at 0.02 ppm (Alternaria alternate; Alternaria, 0.02 ppm, read-out: Efficacy %) was 36%, the inhibition of growth at 0.1 ppm (Alternaria alternate; Alternaria, 0.1 ppm, read-out: Efficacy %) was 100% and the Efficacy % (Alternaria alternate; 0.004 ppm) was 6%.
